Numbers after ± are expanded uncertainties.
Experiment: molar heat capacity at constant pressure; xn = mol fraction of the nth substance listed
Conditions: 101.3 kPa, Liquid, Small sample (50 mg) DSC

CCC(C)(C)O [2-methylbutan-2-ol] + CCCCCCC
Conditions | molar heat capacity at constant pressure [J/K/mol]
318.15 K, x1 = 0.4051 | 268.55 ± 4.2
318.15 K, x1 = 0.4986 | 270.68 ± 4.2
318.15 K, x1 = 0.5981 | 271.65 ± 4.2
318.15 K, x1 = 0.7015 | 272.08 ± 4.2
318.15 K, x1 = 0.8023 | 271.36 ± 4.2
318.15 K, x1 = 0.9139 | 270.14 ± 4.2
318.15 K, x1 = 0.9609 | 269.17 ± 4.2
319.15 K, x1 = 0.0061 | 232.58 ± 3.6
319.15 K, x1 = 0.0494 | 240.63 ± 3.7
319.15 K, x1 = 0.1 | 249.49 ± 3.9
319.15 K, x1 = 0.1547 | 255.72 ± 4
319.15 K, x1 = 0.1999 | 259.62 ± 4
319.15 K, x1 = 0.2993 | 265.58 ± 4.1
319.15 K, x1 = 0.4051 | 269.3 ± 4.2
319.15 K, x1 = 0.4986 | 271.51 ± 4.2
319.15 K, x1 = 0.5981 | 272.56 ± 4.2
319.15 K, x1 = 0.7015 | 273.04 ± 4.2
319.15 K, x1 = 0.8023 | 272.38 ± 4.2
319.15 K, x1 = 0.9609 | 270.15 ± 4.2
319.16 K, x1 = 0.0249 | 235.12 ± 3.6
319.16 K, x1 = 0.9139 | 271.16 ± 4.2
320.14 K, x1 = 0.0061 | 232.92 ± 3.6
320.14 K, x1 = 0.0249 | 235.28 ± 3.6
320.14 K, x1 = 0.0494 | 240.72 ± 3.7
320.14 K, x1 = 0.1 | 249.68 ± 3.9
320.14 K, x1 = 0.1547 | 255.93 ± 4
320.14 K, x1 = 0.1999 | 260.03 ± 4
320.14 K, x1 = 0.2993 | 266.13 ± 4.1
320.14 K, x1 = 0.4051 | 269.96 ± 4.2
320.14 K, x1 = 0.4986 | 272.22 ± 4.2
320.14 K, x1 = 0.5981 | 273.33 ± 4.2
320.14 K, x1 = 0.7015 | 273.87 ± 4.2
320.14 K, x1 = 0.8023 | 273.27 ± 4.2
320.14 K, x1 = 0.9139 | 272.09 ± 4.2
320.14 K, x1 = 0.9609 | 270.99 ± 4.2
321.15 K, x1 = 0.0061 | 233.36 ± 3.6
321.15 K, x1 = 0.0249 | 235.64 ± 3.6
321.15 K, x1 = 0.0494 | 240.94 ± 3.7
321.15 K, x1 = 0.1 | 249.94 ± 3.9
321.15 K, x1 = 0.1547 | 256.42 ± 4
321.15 K, x1 = 0.1999 | 260.55 ± 4
321.15 K, x1 = 0.2993 | 266.78 ± 4.1
321.15 K, x1 = 0.4051 | 270.74 ± 4.2
321.15 K, x1 = 0.4986 | 273.12 ± 4.2
321.15 K, x1 = 0.5981 | 274.26 ± 4.2
321.15 K, x1 = 0.7015 | 274.94 ± 4.3
321.15 K, x1 = 0.8023 | 274.3 ± 4.2
321.15 K, x1 = 0.9139 | 273.21 ± 4.2
321.15 K, x1 = 0.9609 | 272.08 ± 4.2
322.15 K, x1 = 0.0061 | 233.83 ± 3.6
322.15 K, x1 = 0.0249 | 235.95 ± 3.7
322.15 K, x1 = 0.0494 | 241.13 ± 3.7
322.15 K, x1 = 0.1 | 250.19 ± 3.9
322.15 K, x1 = 0.1547 | 256.8 ± 4
322.15 K, x1 = 0.1999 | 261.03 ± 4
322.15 K, x1 = 0.2993 | 267.36 ± 4.1
322.15 K, x1 = 0.4051 | 271.46 ± 4.2
322.15 K, x1 = 0.4986 | 273.9 ± 4.2
322.15 K, x1 = 0.5981 | 275.18 ± 4.3
322.15 K, x1 = 0.7015 | 275.82 ± 4.3
322.15 K, x1 = 0.8023 | 275.19 ± 4.3
322.15 K, x1 = 0.9139 | 274.13 ± 4.2
322.15 K, x1 = 0.9609 | 272.97 ± 4.2
323.14 K, x1 = 0.0061 | 234.21 ± 3.6
323.14 K, x1 = 0.0249 | 236.15 ± 3.7
323.14 K, x1 = 0.0494 | 241.26 ± 3.7
323.14 K, x1 = 0.1 | 250.37 ± 3.9
323.14 K, x1 = 0.1547 | 257.15 ± 4
323.14 K, x1 = 0.1999 | 261.38 ± 4
323.14 K, x1 = 0.2993 | 267.94 ± 4.2
323.14 K, x1 = 0.4051 | 272.09 ± 4.2
323.14 K, x1 = 0.4986 | 274.67 ± 4.3
323.14 K, x1 = 0.5981 | 275.95 ± 4.3
323.14 K, x1 = 0.7015 | 276.7 ± 4.3
323.14 K, x1 = 0.8023 | 276.15 ± 4.3
323.14 K, x1 = 0.9139 | 275.08 ± 4.3
323.14 K, x1 = 0.9609 | 273.92 ± 4.2
324.15 K, x1 = 0.0061 | 234.52 ± 3.6
324.15 K, x1 = 0.0249 | 236.43 ± 3.7
324.15 K, x1 = 0.0494 | 241.45 ± 3.7
324.15 K, x1 = 0.1 | 250.6 ± 3.9
324.15 K, x1 = 0.1547 | 257.46 ± 4
324.15 K, x1 = 0.1999 | 261.78 ± 4.1
324.15 K, x1 = 0.2993 | 268.5 ± 4.2
324.15 K, x1 = 0.4051 | 272.8 ± 4.2
324.15 K, x1 = 0.4986 | 275.41 ± 4.3
324.15 K, x1 = 0.5981 | 276.79 ± 4.3
324.15 K, x1 = 0.7015 | 277.57 ± 4.3
324.15 K, x1 = 0.8023 | 277.05 ± 4.3
324.15 K, x1 = 0.9139 | 275.96 ± 4.3
324.15 K, x1 = 0.9609 | 274.86 ± 4.3
325.15 K, x1 = 0.0061 | 234.92 ± 3.6
325.15 K, x1 = 0.0249 | 236.8 ± 3.7
325.15 K, x1 = 0.0494 | 241.6 ± 3.7
325.15 K, x1 = 0.1 | 250.76 ± 3.9
325.15 K, x1 = 0.1547 | 257.7 ± 4
325.15 K, x1 = 0.1999 | 262.12 ± 4.1
325.15 K, x1 = 0.2993 | 269.04 ± 4.2
325.15 K, x1 = 0.4051 | 273.4 ± 4.2
325.15 K, x1 = 0.4986 | 276.1 ± 4.3
325.15 K, x1 = 0.5981 | 277.56 ± 4.3
325.15 K, x1 = 0.7015 | 278.38 ± 4.3
325.15 K, x1 = 0.8023 | 277.92 ± 4.3
325.15 K, x1 = 0.9139 | 276.88 ± 4.3
325.15 K, x1 = 0.9609 | 275.71 ± 4.3
326.14 K, x1 = 0.0061 | 235.39 ± 3.6
326.14 K, x1 = 0.0249 | 237.1 ± 3.7
326.14 K, x1 = 0.0494 | 241.8 ± 3.8
326.14 K, x1 = 0.1 | 250.96 ± 3.9
326.14 K, x1 = 0.1547 | 258.02 ± 4
326.14 K, x1 = 0.1999 | 262.54 ± 4.1
326.14 K, x1 = 0.2993 | 269.54 ± 4.2
326.14 K, x1 = 0.4051 | 274.06 ± 4.2
326.14 K, x1 = 0.4986 | 276.85 ± 4.3
326.14 K, x1 = 0.5981 | 278.41 ± 4.3
326.14 K, x1 = 0.7015 | 279.29 ± 4.3
326.14 K, x1 = 0.8023 | 278.83 ± 4.3
326.14 K, x1 = 0.9139 | 277.8 ± 4.3
326.14 K, x1 = 0.9609 | 276.69 ± 4.3
327.14 K, x1 = 0.1999 | 262.84 ± 4.1
327.15 K, x1 = 0.0061 | 235.69 ± 3.6
327.15 K, x1 = 0.0249 | 237.39 ± 3.7
327.15 K, x1 = 0.0494 | 241.94 ± 3.8
327.15 K, x1 = 0.1 | 251.07 ± 3.9

Source: the NIST ThermoML archive (doi:10.1016/j.jct.2008.10.010)
